Patent publication US20220117912A1, “L-PIPECOLIC ACID COCRYSTAL OF CANNABIDIOL” (EBERS TECH INC., priority 2019, published 2022)

Legend:
[1] = Visual water solubility test of the cocrystal (0.6 mg in 3 mL water, shaken and sonicated); format: physicochemical
Description: 0.6 mg of the cocrystal was placed in a glass vial and 3 mL of water was added. The slurry was immediately shaken and sonicated.

[2] = Exposure to relative humidity (RH) stress, XRPD afterwards; format: physicochemical; conditions: 95% RH for 8 days
Source text: X-Ray Powder Diffraction (XRPD): The Rigaku Smart-Lab X-ray diffraction system was configured for reflection Bragg-Brentano geometry using a line source X-ray beam. The x-ray source is a Cu Long Fine Focus tube that was operated at 40 kV and 44 ma. That source provides an incident beam profile at the sample that changes from a narrow line at high angles to a broad rectangle at low angles. Beam conditioning slits are used on the line X-ray source to ensure that the maximum beam size is less than 10 mm both along the line and normal to the line. The Bragg-Brentano geometry is a para-focusing geometry controlled by passive divergence and receiving slits with the sample itself acting as the focusing component for the optics. The inherent resolution of Bragg-Brentano geometry is governed in part by the diffractometer radius and the width of the receiving slit used. Typically, the Rigaku Smart-Lab is operated to give peak widths of 0.1° 2θ or less. The axial divergence of the X-ray beam is controlled by 5.0-degree Soller slits in both the incident and diffracted beam paths. […] Each sample was analyzed from 2 to 40° 2θ using a continuous scan of 6° 2θ per minute with an effective step size of 0.02° 2θ. In the case of high resolution XRPD, samples were analyzed with a scan rate of 1° 2θ per minute with a sample spin rate of 50 rpm. […]

For `C=C(C)[C@@H]1CCC(C)=C[C@H]1c1c(O)cc(CCCCC)cc1O.O=C(O)[C@@H]1CCCCN1` [1:1 cannabidiol:L-pipecolic acid cocrystal], the “Visual dissolution in water” value ([1]; 0.6 mg of cocrystal in 3 mL of water, shaken and sonicated) was “none of the solid dissolved”, the Water solubility ([1]; water) was “less than 0.2 mg/mL” and the “Solid-form stability under humidity stress (XRPD pattern after stress)” value [2] was “cocrystal disassociated during the experiment”.
